# From patent US5958719A, “Method for the determination of the activity of specific phosphotyrosine phosphatases and specific effectors thereof in intact cells” (Max-Planck Gesellschaft Zur Foderung der Wissenschaften E.V., priority 1995, dated 1999)
# Entries after “also recorded” stand apart in the source; their conditions may differ.
# Experiments:
# PDGF receptor = PDGF receptor dephosphorylation over time in intact PDGF-stimulated Swiss 3T3 cells after addition of PTK inhibitor; type: cell-based, mouse; settings: AG1296 50 μM added after 5 min PDGF stimulation; intact Swiss 3T3 cells
# Source text: (§1) Swiss 3T3 fibroblasts (mouse) express PDGFα and PDGFβ receptors on the cell surface (Hosang et al. (1989)). Stimulation of the cells with PDGF leads to a rapid autophosphorylation of these receptors at tyrosine residues. This autophosphorylation can be detected in immunoblots using anti-phosphotyrosine antibodies after immunoprecipitation of the receptors and can be detected in unfractionated cell lysates. The autophosphorylated receptors are rapidly dephosphorylated by PDGF receptor-directed PTPase(s) (Bohmer et al. (1993)). The identity of the cellular PTPases which catalyse this reaction is not known. […] If the inhibitor is added to cells after activation of the PDGF receptor PTK, the dephosphorylation of the PDGF receptor can be monitored over time. (FIG. 3).
# Swiss 3T3 cells were treated in serum-free medium with PDGF (FIG. 3, lanes 2-6) or the corresponding solvent (FIG. 3, lane 1). After 5 minutes stimulation AG1296 (50 μM, FIG. 3B) or the corresponding solvent (DMSO, FIG. 3 A) was added. The phosphotyrosine content of the PDGF receptor was examined in the cells thus treated at the stated various time points. […] This decrease is caused by the activity of the PDGF receptor-directed PTPase in the intact cells.
# PDGF receptor PTK = assay: Inhibition of PDGF receptor PTK (PDGF-induced receptor autophosphorylation, anti-phosphotyrosine immunoblot) in Swiss 3T3 cells; type: cell-based, mouse; settings: AG1296 50 μM, 2 min preincubation, then PDGF-BB 100 ng/ml 5 min
# Source text: as §1
# Confluent, resting Swiss 3T3 cells were incubated as stated for various periods in serum-free cell culture medium without supplements (lanes 1, 2) or with the PDGF receptor PTK inhibitor AG1296 (final concentration 50 μM) (lanes 3-6). Then human recombinant PDGF-BB (final concentration 100 ng/ml) (lanes 2-6) or the corresponding solvent (lane 1) was added and the incubation was continued for 5 minutes.
# [1] = tested on: PDGF receptor-directed PTPase(s); assay: PDGF receptor-directed PTPase activity (dephosphorylation of autophosphorylated PDGF receptor) in isolated Swiss 3T3 cell membranes; type: biochemical, mouse; settings: AG1296 50 μM, 30 min incubation, 10 mM EDTA
# Source text: as §1
# Isolated Swiss 3T3 cell membranes (10 μg protein per lane) were treated for 20 minutes on ice with PDGF (2 μg/ml). The activated PDGF receptor PTK was then autophosphorylated by adding 3 mM (final concentration) ATP. The kinase reaction was inhibited by addition of 10 mM EDTA. At the same time AG1296 (50 μM) (B) or the corresponding solvent (DMSO) (A) was added. The phosphotyrosine content of the PDGF receptor was measured in a similar manner to that described in FIG. 1 immediately after addition of the agents (0 min) or after 30 min incubation. […]
# [2] = tested on: PDGF receptor-directed PTPase(s); type: cell-based, mouse
# NGF receptor = NGF receptor dephosphorylation over time in intact NGF-stimulated TrkA-transfected PC12 cells after addition of PTK inhibitor; type: cell-based, rat; settings: K252a 1 μM added after 10 min NGF stimulation; intact PC12 cells transfected with TrkA
# Source text: (§2) PC 12 cells (rat pheochromocytoma cells) which overexpress NGF receptors (Trk A) (Obermeier et al. (1994)) were used for the experiments shown. Stimulation of the cells with NGF leads to a rapid autophosphorylation of these receptors at tyrosine residues. This autophosphorylation can be detected in immunoblots using anti-phosphotyrosine antibodies after immunoprecipitation of the receptors. The identity of the cellular PTPases which dephosphorylate autophosphorylated NGF receptors is not known.
# PC12 cells transfected with TrkA were treated in serum-free medium with NGF (lanes 2-6) or the corresponding solvent (lane 1). After a 10 minute stimulation, K252a (1 μM, B) or the corresponding solvent (DMSO, A) was added. At the stated various time points the cells treated correspondingly were tested as described in FIG. 1 and the phosphotyrosine content of the NGF receptors was examined. […] This decrease is caused by the activity of the NGF receptor-directed PTPase in the intact cells.
# NGF receptor PTK = settings: Ohmichi et al (1992); Tapley et al (1992); cited from earlier work
# NGF receptor PTK (Trk) = assay: Inhibition of NGF receptor PTK (NGF-induced TrkA autophosphorylation, immunoprecipitation and anti-phosphotyrosine immunoblot) in PC12 cells; type: cell-based, rat; settings: K252a 1 μM, 2 min (short) preincubation, then NGF 150 ng/ml 10 min; PC12 cells overexpressing TrkA
# Source text: as §2
# PC12 cells that overexpress TrkA were incubated as stated for various periods in serum-free cell culture medium without supplements (lanes 1, 2) or with the NGF receptor PTK inhibitor K252a (final concentration 1 μM) (lanes 3-6). Then NGF (final concentration 150 ng/ml) (lanes 2-6) or the corresponding solvent (lane 1) was added and the incubation was continued for 10 minutes.
compound,measurement,setting,value
COc1cc2ncc(-c3ccccc3)nc2cc1OC [AG1296],phosphotyrosine content of the PDGF receptor over time,PDGF receptor,continuously decreases
same,inhibition of PDGF receptor PTK activity / PDGF-induced receptor autophosphorylation,PDGF receptor PTK,completely inhibits its activity; also recorded: completely suppressed
same,influence on PDGF receptor-directed PTPase activity (dephosphorylation),[1],does not influence the activity of the PTPase(s); also recorded: does not inhibit; also recorded: does not influence this dephosphorylation
CNc1ccc2oc(CC3OC4(CCC3C)OC(C(C)C(=O)c3ccc[nH]3)C(C)CC4C)nc2c1C(=O)O (centres unmarked) [A23187],action on PTPases which specifically dephosphorylate the PDGF receptor,[2],activator
same,Relative PDGF receptor-directed PTPase activity (% of control),"[2]; swiss 3t3 cells, 5 min, 1 µM",161 % of control
COC(=O)C1(O)CC2OC1(C)n1c3ccccc3c3c4c(c5c6ccccc6n2c5c31)C(=O)NC4 (centres unmarked) [K252a],phosphotyrosine content of the NGF receptor over time,NGF receptor,very rapid dephosphorylation; also recorded: decreases significantly
same,specificity of inhibition of NGF receptor PTK and PTK of other neurotrophin receptors,NGF receptor PTK,specific inhibitor of the NGF receptor PTK
same,inhibition of Trk receptor PTK activity / NGF-induced receptor autophosphorylation,NGF receptor PTK (Trk),completely inhibits the activity; also recorded: completely suppressed
